From patent publication US20210094954A1, “PREPARATION METHODS AND APPLICATIONS OF 3,5-DISUBSTITUTED METHYLPYRAZOLO[1,5-A]PYRIMIDINE-7-HYDROXYLIC SALTS” (priority 2019, published 2021)
Where two headings read alike, the source gives them in different places.

Legend:
Clostridium perfringens = test: microbe, parasite or virus in culture; type: cell-based; conditions: Clostridium perfringens, 24 h, read-out: MIC values of in vitro antibacterial test results
Peel fungus = test: organism not typed; type: cell-based; conditions: 37° C., 24 hours; read-out: MIC values of in vitro antibacterial test results
[1] = test system: Enterococcus faecalis F2518(VRE); test: microbe, parasite or virus in culture; type: cell-based; conditions: Enterococcus faecalis, VRE, 24 h, read-out: MIC values of in vitro antibacterial test results
[2] = test system: Staphylococcus aureus 703(MRSA); test: microbe, parasite or virus in culture; type: cell-based; conditions: Staphylococcus aureus, MRSA, 24 h, read-out: MIC values of in vitro antibacterial test results
[3] = test system: Streptococcus pneumoniae 10351; test: microbe, parasite or virus in culture; type: cell-based; conditions: Streptococcus pneumoniae, 10351; 37° C., 24 hours; read-out: MIC values of in vitro antibacterial test results
[4] = test system: Bacillus anthracis Bacillus 1; test: microbe, parasite or virus in culture; type: cell-based; conditions: Bacillus anthracis, 24 h, read-out: MIC values of in vitro antibacterial test results
[5] = test system: Staphylococcus aureus 29231; test: microbe, parasite or virus in culture; type: cell-based; conditions: Staphylococcus aureus, 29231; 37° C., 24 hours; read-out: MIC values of in vitro antibacterial test results
[6] = test system: Streptococcus agalactia B group; test: microbe, parasite or virus in culture; type: cell-based; conditions: Streptococcus; 37° C., 24 hours; read-out: MIC values of in vitro antibacterial test results
Diphtheria bacilli = test: organism not typed; type: cell-based; conditions: 37° C., 24 hours; read-out: MIC values of in vitro antibacterial test results
[7] = test system: Staphylococcus aureus 43300(MRSA); test: microbe, parasite or virus in culture; type: cell-based; conditions: Staphylococcus aureus, MRSA, 24 h, read-out: MIC values of in vitro antibacterial test results
Oral Candida = test: microbe, parasite or virus in culture; type: cell-based; conditions: Candida
[8] = test system: Streptococcus pneumoniae M2; test: microbe, parasite or virus in culture; type: cell-based; conditions: Streptococcus pneumoniae, M2; 37° C., 24 hours; read-out: MIC values of in vitro antibacterial test results
[9] = test system: Staphylococcus aureus 43300 (MRSA); test: antibacterial study in vivo, survival of infected kunming mice; conditions: for Survival days: 30 days of observation
[10] = test system: Enterococcus faecalis 29212; test: microbe, parasite or virus in culture; type: cell-based; conditions: Enterococcus faecalis, 29212; 37° C., 24 hours; read-out: MIC values of in vitro antibacterial test results
Bacillus subtilis 168 = test: microbe, parasite or virus in culture; type: cell-based; conditions: Bacillus subtilis, 168; 37° C., 24 hours; read-out: MIC values of in vitro antibacterial test results
[11] = test system: Streptococcus pneumoniae 6303 (PRSP); test: microbe, parasite or virus in culture; type: cell-based; conditions: Streptococcus pneumoniae, PRSP, 24 h, read-out: MIC values of in vitro antibacterial test results
Bacillus cereus 2 = test: microbe, parasite or virus in culture; type: cell-based; conditions: Bacillus cereus, 2; 37° C., 24 hours; read-out: MIC values of in vitro antibacterial test results
[12] = test system: F2518(VRE), Staphylococcus aureus resistant strain 43300(MRSA), 703 (MRSA), pneumococcal resistance bacteria 6303(PRSP); test: microbe, parasite or virus in culture; type: cell-based; conditions: read-out: MIC values (μM)
[13] = 37° C., 24 hours, read-out: MIC values of in vitro antibacterial test results

| SMILES | MIC (Clostridium perfringens) [µg/mL] | MIC (Peel fungus) [µg/mL] | MIC [1] [µg/mL] | MIC [2] [µg/mL] | MIC [3] [µg/mL] | MIC [4] [µg/mL] | MIC [5] [µg/mL] | MIC [6] [µg/mL] | MIC (Diphtheria bacilli) [µg/mL] | MIC [7] [µg/mL] | MIC (Oral Candida; read-out: MIC values (μM)) [µg/mL] | MIC (Oral Candida; [13]) [µg/mL] | MIC [8] [µg/mL] | MIC [10] [µg/mL] | MIC (Bacillus subtilis 168) [µg/mL] | MIC [11] [µg/mL] | MIC (Bacillus cereus 2) [µg/mL] | MIC [12] [µg/mL] | further results |
| --- | --- | --- | --- | --- | --- | --- | --- | --- | --- | --- | --- | --- | --- | --- | --- | --- | --- | --- | --- |
| Cc1nn2c([O-])cc(-c3ccc(N(C)C)cc3)nc2c1-c1ccc(F)cc1F.[Na+] [Compound 5, Sodium 3-(2,4-difluorophenyl)-5-(4-(dimethylamino)phenyl)-2-methylpyrazolo[1,5-α]pyrimidin-7-olate] | > 150 | < 150 | < 150 | < 150 | > 150 | > 150 | > 150 | > 150 | > 150 | < 150 | < 100 | < 100 | < 100 | < 150 | > 150 | > 150 | < 150 | – | Survival days ([9]; dosage 30 mg/kg): 2.6 days |
| Cc1nn2c([O-])cc(-c3ccc(Oc4ccccc4)nc3)nc2c1-c1ccc(F)cc1F.[Na+] [Compound 30, Sodium 3-(2,4-difluorophenyl)-2-methyl-5-(6-phenoxypyridin-3-yl)pyrazolo[1,5-α]pyrimidin-7-olate] | > 150 | < 150 | < 150 | < 150 | > 150 | > 150 | > 150 | > 150 | > 150 | < 100 | < 100 | < 100 | < 100 | < 150 | > 150 | > 150 | < 150 | < 100 | Survival days ([9]; dosage 30 mg/kg): 2.4 days |
| CC(=O)Oc1ccc(-c2cc([O-])n3nc(C)c(-c4ccc(F)cc4F)c3n2)cc1.[Na+] [Compound 13, Sodium 5-(4-acetoxyphenyl)-3-(2,4-difluorophenyl)-2-methylpyrazolo[1,5-α]pyrimidin-7-olate] | > 150 | < 150 | < 150 | < 150 | > 150 | > 150 | > 150 | > 150 | > 150 | < 100 | < 100 | < 100 | < 100 | < 150 | > 150 | > 150 | < 150 | < 100 | – |
| Cc1nn2c([O-])cc(-c3ccc(C#N)nc3)nc2c1-c1ccc(F)cc1F.[Na+] [Compound 15, sodium 5-(6-cyanopyridin-3-yl)-3-(2,4-difluorophenyl)-2-methylpyrazolo[1,5-α]pyrimidin-7-olate] | > 150 | > 150 | < 150 | < 100 | < 100 | > 150 | < 100 | > 150 | > 150 | < 150 | – | < 150 | < 100 | < 100 | < 150 | < 150 | < 100 | < 100 | – |
| Cc1nn2c([O-])cc(-c3ccc(C#N)cc3)nc2c1-c1ccc(F)cc1F.[K+] [Compound 20, Potassium 5-(4-cyanophenyl)-3-(2,4-difluorophenyl)-2-methylpyrazolo[1,5-α]pyrimidin-7-olate] | < 150 | > 150 | < 150 | < 100 | < 100 | > 150 | < 100 | > 150 | < 150 | < 150 | – | < 150 | < 100 | < 100 | < 100 | < 150 | < 100 | < 100 | – |
| Cc1nn2c([O-])cc(-c3ccc(C(F)(F)F)nc3)nc2c1-c1ccc(F)cc1F.[Na+] [Compound 14, Sodium 3-(2,4-difluorophenyl)-2-methyl-5-(6-(trifluoromethyl)pyridin-3-yl)pyrazolo[1,5-α] pyrimidin-7-olate] | > 150 | > 150 | < 150 | < 100 | < 100 | > 150 | < 100 | > 150 | > 150 | < 150 | < 100 | < 100 | < 150 | < 100 | < 100 | < 100 | < 100 | < 100 | – |
| Cc1nn2c([O-])cc(-c3ccc([N+](=O)[O-])cc3)nc2c1-c1ccc(F)cc1F.[K+] [Compound 23, Potassium 3-(2,4-difluorophenyl)-2-methyl-5-(4-nitrophenyl)pyrazolo[1,5-α]pyrimidin-7-olate] | > 150 | < 150 | < 150 | < 150 | > 150 | > 150 | > 150 | > 150 | > 150 | < 100 | < 100 | < 100 | < 100 | < 150 | > 150 | > 150 | < 100 | < 100 | – |
| COc1ccc(-c2cc([O-])n3nc(C)c(-c4ccc(F)cc4F)c3n2)cc1.[Na+] [Compound 4, Sodium 3-(2,4-difluorophenyl)-5-(4-methoxyphenyl)-2-methylpyrazolo[1,5-α]pyrimidin-7-olate] | > 150 | < 150 | < 150 | < 150 | > 150 | > 150 | > 150 | > 150 | > 150 | < 100 | – | < 150 | < 150 | < 150 | > 150 | > 150 | < 150 | < 100 | – |
| Cc1nn2c([O-])cc(-c3ccc(S(N)(=O)=O)nc3)nc2c1-c1ccc(F)cc1F.[Na+] [Compound 29, Sodium 3-(2,4-difluorophenyl)-2-methyl-5-(6-sulfamoylpyridin-3-yl)pyrazolo[1,5-α]pyrimidin-7-olate] | > 150 | < 150 | < 150 | < 150 | > 150 | > 150 | > 150 | > 150 | > 150 | < 100 | < 100 | < 100 | < 100 | < 150 | > 150 | > 150 | < 150 | < 100 | – |
| Cc1nn2c([O-])cc(-c3ccc(N(C)C)cc3)nc2c1-c1ccc(F)cc1F.[K+] [Compound 24, Potassium 3-(2,4-difluorophenyl)-5-(4-(dimethylamino)phenyl)-2-methylpyrazolo[1,5-α]pyrimidin-7-olate] | < 150 | < 150 | < 150 | < 100 | < 100 | > 150 | < 100 | > 150 | > 150 | < 150 | < 100 | < 100 | < 100 | < 100 | < 100 | < 150 | < 100 | < 100 | – |
| O=C(O)c1cn(C2CC2)c2cc(N3CCNCC3)c(F)cc2c1=O [Ciprofloxacin, reference compound] | – | – | – | – | – | – | – | – | – | – | – | – | – | – | – | – | – | – | Survival days ([9]; dosage 20 mg/kg): 3.4 days; Life extension rate (%) ([9]; dosage 20 mg/kg, versus blank group): 161.5% |
| Cc1nn2c([O-])cc(-c3ccc(C(F)(F)F)cc3)nc2c1-c1ccc(F)cc1F.[K+] [Compound 22, potassium 3-(2,4-difluorophenyl)-2-methyl-5-(4-(trifluoromethyl)phenyl)pyrazolo[1,5-α]pyrimidin-7-olate] | > 150 | < 150 | < 150 | < 100 | < 150 | > 150 | < 100 | < 150 | > 150 | < 100 | < 100 | < 100 | < 100 | < 150 | < 100 | < 150 | < 100 | < 100 | – |
